We go through ten molecules from patent EP2123668A1, “Immunogenic polypeptides that mimic the surface polysaccharide O-antigen from serotype 2A shigella flexneri, method for obtaining the same, and their use in vaccine and diagnostic compositions” (INSTITUT PASTEUR, priority 2008, dated 2009).

In assay [1] the target is mAb F22-4. The assay is described as follows: Biacore antibody-ligand binding (equilibrium and kinetic analysis). The arrangement: species or system murine.
Assay [2] addresses mAb F22-4. The assay is described as follows: StopFlow antibody-ligand binding. The arrangement: species or system murine.
For assay [3], the system named is LPS/F22-4. Particulars: cited from earlier work.
The subject of the next assay is F22-4 antibody. The assay is described as follows: ITC microcalorimetry. It is filed as binding, murine. From the text: ITC experiments with F22-4 antibody and several chemically synthesized oligosaccharidic fragments of O-Ag 2a lead to two major results.
In assay [4] the target is LPS/F22-4. The assay is described as follows: ELISA inhibition of LPS/F22-4 binding. The arrangement: species or system murine.
For assay [5], the system named is S. flexneri 2a mAb (F22-4). The assay is described as follows: Reactivity of selected or conjugated peptides with the F22-4 mAb. It counts as binding, murine. Particulars: conjugated peptides, coupled to BSA. From the text:
Two protective mAbs directed against S. flexneri LPS 2a (IgG C1-7 and IgG F22-4) were used for mimotope selection using the two libraries displaying 12 amino acid-long inserts.
The peptides have been synthesized with a flanking region AEGEF at the N-terminal and DPAKC at the C-terminal. The peptides have been conjugated to maleimide-activated bovine serum albumin (BSA) and to maleimide-activated keyhole limpet hemocyanine (KLH) using a kit from Pierce. The seven different sequences have been selected by Partner 4, all showing good reactivity with the S. flexneri 2a mAb (F22-4) and being inhibited by the LPS. Five of the sequences, B24, B1, C8, C26 and C17 (shown below in bold) have been chosen for further analyzes. The reason that the peptides C22 and C3 have been omitted are that they contain cysteine and the conjugation procedure that we exploited used cysteine for coupling to the protein. The conjugated peptides have been tested for reactivity with the F22-4 mAb and were positive when coupled to BSA. […] Sequences of peptides selected using the S. flexneri 2a specific mAb F22-4

In assay [6] the target is LPS/F22-4. The assay is described as follows: ELISA inhibition of LPS/F22-4 binding. The arrangement: species or system murine. The source holds these as a separate data set.
For assay [7], the target named is mAb F22-4. The assay is described as follows: Biacore antibody-ligand binding (equilibrium and kinetic analysis). The arrangement: species or system murine. Particulars: equilibrium analysis; read-out: Biacore Eq KD.
Setting [8] is: equilibrium analysis, read-out: Biacore Eq KD.
Where [9] appears, read: kinetic analysis, read-out: Biacore Cin KD.
Where [10] appears, read: PBS buffer at 25°C, read-out: KD.
Setting [11] is: Table 6 recapitulation, read-out: microcal KD.

Like-named read-outs stand apart in the source and are kept apart here. No end group written: not given here.

For the molecule `COC1OC(C)C(OC2OC(CO)C(O)C(O)C2O)C(OC2OC(C)C(O)C(O)C2OC2OC(C)C(O)C(O)C2OC2OC(CO)C(O)C(OC3OC(C)C(OC4OC(CO)C(O)C(O)C4O)C(OC4OC(C)C(O)C(O)C4O)C3O)C2NC(C)=O)C1O` (stereo not drawn) [B(E)CDAB(E)C], the Kd on mAb F22-4 [1] (setting [8]) amounted to 0.61 µM; at mAb F22-4 [1] (setting [9]) it was 0.75 µM; at mAb F22-4 [2], 0.16 µM; on F22-4 antibody (setting [10]), 0.47 µM; on F22-4 antibody (setting [11]), 0.47 µM. Further, the “Biacore Cin koff(s-1)” value in the assay with mAb F22-4 [1] (kinetic analysis) was 0,068±0,03 s-1. Also, the “StopFlow koff(s-1)” value with mAb F22-4 [2] is given as 0,05 s-1. Also, the “StopFlow kon(M-1.s-1)” value with mAb F22-4 [2] is listed as 3,10E+05 M-1.s-1. The “effectiveness in inhibition compared with ECD” value in the assay with LPS/F22-4 [3] (LPS/F22-4 inhibition studies (12), (13)) was “about three orders of magnitude more effective”. The “ΔH (Kcal/mol)” value in the assay on F22-4 antibody (PBS buffer at 25°C) was -19,5±0,2 Kcal/mol. The “ΔS (cal/mol/K)” value in the assay with F22-4 antibody (PBS buffer at 25°C) is listed as -36,6 cal/mol/K. Moreover, the IC50 at LPS/F22-4 [4] amounted to 0.22 µM.
As to `CO[C@@H]1O[C@@H](C)[C@H](O)[C@@H](O)[C@H]1O[C@@H]1O[C@H](CO)[C@@H](O)[C@H](O[C@@H]2O[C@@H](C)[C@H](O[C@H]3O[C@H](CO)[C@@H](O)[C@H](O)[C@H]3O)[C@@H](O[C@@H]3O[C@@H](C)[C@H](O)[C@@H](O)[C@H]3O)[C@H]2O)[C@H]1NC(C)=O` [B(E)CDA], the Kd at mAb F22-4 [1] (setting [8]) was found to be 4.1 µM. On mAb F22-4 [2], the Kd turned out to be 3.5 µM, the “StopFlow koff(s-1)” value was 2,4 s-1 and the “StopFlow kon(M-1.s-1)” value was 7,00E+05 M-1.s-1. Also, in the assay on F22-4 antibody (PBS buffer at 25°C), the “ΔH (Kcal/mol)” value is listed as -14,2±0,1 Kcal/mol and the “ΔS (cal/mol/K)” value was -22,7 cal/mol/K. Further, at F22-4 antibody (setting [10]), the Kd was found to be 3.35 µM. For the same molecule, on F22-4 antibody (setting [11]), the Kd worked out at 3.35 µM. Also, the IC50 on LPS/F22-4 [4] stood at 2.5 µM.
For `COC1OC(C)C(OC2OC(CO)C(O)C(O)C2O)C(OC2OC(C)C(O)C(O)C2OC2OC(C)C(O)C(O)C2OC2OC(CO)C(O)C(OC3OC(C)C(OC4OC(CO)C(O)C(O)C4O)C(OC4OC(C)C(O)C(O)C4OC4OC(C)C(O)C(O)C4OC4OC(CO)C(O)C(O)C4NC(C)=O)C3O)C2NC(C)=O)C1O` (stereo not drawn) [DAB(E)CDAB(E)C], the Kd on mAb F22-4 [1] (setting [8]) is 5.32 µM; on mAb F22-4 [1] (setting [9]), 4.47 µM; at mAb F22-4 [2], 5 µM; on F22-4 antibody (setting [10]) it was 5.4 µM; on F22-4 antibody (setting [11]), 5.4 µM. In addition, the “Biacore Cin koff(s-1)” value with mAb F22-4 [1] (kinetic analysis) was 0,123±0,04 s-1. In addition, in the assay with mAb F22-4 [2], the “StopFlow koff(s-1)” value is given as 0,29 s-1. In addition, the “StopFlow kon(M-1.s-1)” value in the assay with mAb F22-4 [2] is 5,90E+04 M-1.s-1. Moreover, the “IC50 compared with B(E)CDA'B'(E')C'” value with LPS/F22-4 [3] (reference (12)) is given as “only an order of magnitude higher”. In the assay with F22-4 antibody (PBS buffer at 25°C), the “ΔH (Kcal/mol)” value was -19,5±01,2 Kcal/mol. Moreover, the “ΔS (cal/mol/K)” value in the assay with F22-4 antibody (PBS buffer at 25°C) was -41,2 cal/mol/K. The molecule also returned an IC50 at LPS/F22-4 [4] of 5 ± 1.4 µM.
Regarding `CO[C@@H]1O[C@@H](C)[C@H](O[C@H]2O[C@H](CO)[C@@H](O)[C@H](O)[C@H]2O)[C@@H](O[C@@H]2O[C@@H](C)[C@H](O)[C@@H](O)[C@H]2O[C@@H]2O[C@@H](C)[C@H](O)[C@@H](O)[C@H]2O[C@@H]2O[C@H](CO)[C@@H](O)[C@H](O)[C@H]2NC(C)=O)[C@H]1O` [DAB(E)C], the Kd on mAb F22-4 [2] is greater than 1100 µM. On LPS/F22-4 [4], this molecule showed an IC50 greater than 1000 µM.
As to `CO[C@@H]1O[C@@H](C)[C@H](O)[C@@H](O)[C@H]1O[C@@H]1O[C@@H](C)[C@H](O)[C@@H](O)[C@H]1O[C@@H]1O[C@H](CO)[C@@H](O)[C@H](O[C@@H]2O[C@@H](C)[C@H](O[C@H]3O[C@H](CO)[C@@H](O)[C@H](O)[C@H]3O)[C@@H](O)[C@H]2O)[C@H]1NC(C)=O` [ECDAB], the Kd on mAb F22-4 [2] amounted to 300 µM; on F22-4 antibody (setting [10]), 230 ± 2 µM; at F22-4 antibody (setting [11]) it was 230 ± 2 µM. The “ΔH (Kcal/mol)” value in the assay with F22-4 antibody (PBS buffer at 25°C) is recorded as -10,8±0,1 Kcal/mol. For the same molecule, the “ΔS (cal/mol/K)” value in the assay with F22-4 antibody (PBS buffer at 25°C) is -19,6 cal/mol/K. In addition, the IC50 at LPS/F22-4 [4] turned out to be 354 ± 40 µM.
Take `COC1OC(C)C(O)C(O)C1OC1OC(CO)C(O)C(OC2OC(C)C(OC3OC(CO)C(O)C(O)C3O)C(O)C2O)C1NC(C)=O` (stereo not drawn) [ECDA]: in the assay with F22-4 antibody (PBS buffer at 25°C), the “ΔH (Kcal/mol)” value was -11,3±0,1 Kcal/mol and the “ΔS (cal/mol/K)” value was -19.2 cal/mol/K. Besides, the Kd at F22-4 antibody (setting [10]) amounted to 89 ± 1 µM.
On to `CC(=O)N[C@@H]1[C@@H](O[C@@H]2O[C@@H](C)[C@H](O[C@H]3O[C@H](CO)[C@@H](O)[C@H](O)[C@H]3O)[C@@H](O[C@@H]3O[C@@H](C)[C@H](O)[C@@H](O)[C@H]3O[C@@H]3O[C@@H](C)[C@H](O)[C@@H](O)[C@H]3O[C@@H]3O[C@H](CO)[C@@H](O)[C@H](O[C@@H]4O[C@@H](C)[C@H](O[C@H]5O[C@H](CO)[C@@H](O)[C@H](O)[C@H]5O)[C@@H](O[C@@H]5O[C@@H](C)[C@H](O)[C@@H](O)[C@H]5O[C@@H]5O[C@@H](C)[C@H](O)[C@@H](O)[C@H]5O)[C@H]4O)[C@H]3NC(C)=O)[C@H]2O)[C@H](O)[C@@H](CO)O[C@H]1O` [[AB(E)CD]2], for which the Kd was determined as 1 µM on mAb F22-4 [1] (setting [8]); 1.09 µM on mAb F22-4 [1] (setting [9]); 1.5 µM at mAb F22-4 [2]; 1.04 µM on F22-4 antibody (setting [10]); 1.04 µM on F22-4 antibody (setting [11]). In addition, the “Biacore Cin koff(s-1)” value in the assay on mAb F22-4 [1] (kinetic analysis) is 0,074±0,004 s-1. Further, the “StopFlow koff(s-1)” value with mAb F22-4 [2] is 0,13 s-1. Also, the “StopFlow kon(M-1.s-1)” value with mAb F22-4 [2] is recorded as 8,30E+04 M-1.s-1. For the same molecule, the “ΔH (Kcal/mol)” value with F22-4 antibody (PBS buffer at 25°C) was -17,7±0,7 Kcal/mol. For the same molecule, the “ΔS (cal/mol/K)” value with F22-4 antibody (PBS buffer at 25°C) is on record as -31,7 cal/mol/K. On LPS/F22-4 [4], this molecule returned an IC50 of 0.7 µM.
Turning to `CC(=O)N[C@@H]1[C@@H](O[C@@H]2O[C@@H](C)[C@H](O[C@H]3O[C@H](CO)[C@@H](O)[C@H](O)[C@H]3O)[C@@H](O[C@@H]3O[C@@H](C)[C@H](O)[C@@H](O)[C@H]3O[C@@H]3O[C@@H](C)[C@H](O)[C@@H](O)[C@H]3O[C@@H]3O[C@H](CO)[C@@H](O)[C@H](O[C@@H]4O[C@@H](C)[C@H](O[C@H]5O[C@H](CO)[C@@H](O)[C@H](O)[C@H]5O)[C@@H](O[C@@H]5O[C@@H](C)[C@H](O)[C@@H](O)[C@H]5O[C@@H]5O[C@@H](C)[C@H](O)[C@@H](O)[C@H]5O[C@@H]5O[C@H](CO)[C@@H](O)[C@H](O[C@@H]6O[C@@H](C)[C@H](O[C@H]7O[C@H](CO)[C@@H](O)[C@H](O)[C@H]7O)[C@@H](O[C@@H]7O[C@@H](C)[C@H](O)[C@@H](O)[C@H]7O[C@@H]7O[C@@H](C)[C@H](O)[C@@H](O)[C@H]7O)[C@H]6O)[C@H]5NC(C)=O)[C@H]4O)[C@H]3NC(C)=O)[C@H]2O)[C@H](O)[C@@H](CO)O[C@H]1O` [[AB(E)CD]3], the Kd worked out at 0.56 µM at mAb F22-4 [1] (setting [8]); 1.56 µM on mAb F22-4 [1] (setting [9]); 0.69 µM on mAb F22-4 [2]; 1.03 µM on F22-4 antibody (setting [10]); 1.03 µM at F22-4 antibody (setting [11]). Also, the “Biacore Cin koff(s-1)” value with mAb F22-4 [1] (kinetic analysis) is 0,075+0,005^(H) s-1. Moreover, in the assay with mAb F22-4 [2], the “StopFlow koff(s-1)” value is recorded as 0,11 s-1. In addition, the “StopFlow kon(M-1.s-1)” value in the assay with mAb F22-4 [2] was 1,70E+05 M-1.s-1. Moreover, the “ΔH (Kcal/mol)” value with F22-4 antibody (PBS buffer at 25°C) is -17,3±0,8 Kcal/mol. For the same molecule, the “ΔS (cal/mol/K)” value with F22-4 antibody (PBS buffer at 25°C) is -30,6 cal/mol/K. Further, the IC50 on LPS/F22-4 [4] stood at 0.32 µM.
As to “AEGEFPHGEIFHMMRRPDPAKC-COOH (AEGEFPHGEIFHMMRRPDPAKC-OH) [Peptide C17]”, the “reactivity with the F22-4 mAb” value in assay [5] was “poor reactivity”.
The molecule YLEDWIKYNNQK [Peptide B1] gave an IC50 on LPS/F22-4 [6] of roughly 3 µM. Moreover, in the assay with F22-4 antibody (PBS buffer at 25°C), the “ΔH (Kcal/mol)” value is listed as -24,0 ±0,1 Kcal/mol and the “ΔS (cal/mol/K)” value is recorded as -54,6 cal/mol/K. In addition, at F22-4 antibody (setting [11]), the Kd is 2.49 µM. For the same molecule, the Kd on mAb F22-4 [7] was 2.98 µM.
